From PMC5145814 (Molecular Cell, 2016)

Columns and labels:
[1] = target: T1, RFS-1/RIP-1 (Caenorhabditis elegans, UniProt P34348); test: stopped-flow Cy3 fluorescence, binding to RAD-51-ssDNA filament […]' end; assay type: biochemical; conditions: 25°C; 50 nM RFS-1/RIP-1 pre-incubated with ADP; 1 μM RAD-51, 15 nM 5'-Cy3-43-mer
T1 sequence (P34348 1-245): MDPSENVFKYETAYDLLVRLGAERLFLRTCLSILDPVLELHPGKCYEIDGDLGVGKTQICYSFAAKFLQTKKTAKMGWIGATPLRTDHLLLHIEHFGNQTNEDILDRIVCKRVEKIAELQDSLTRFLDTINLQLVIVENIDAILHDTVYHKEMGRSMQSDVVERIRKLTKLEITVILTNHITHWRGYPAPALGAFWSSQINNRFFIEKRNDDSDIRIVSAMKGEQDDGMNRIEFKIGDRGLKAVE
T1 sequence (Q21621 1-209 partner): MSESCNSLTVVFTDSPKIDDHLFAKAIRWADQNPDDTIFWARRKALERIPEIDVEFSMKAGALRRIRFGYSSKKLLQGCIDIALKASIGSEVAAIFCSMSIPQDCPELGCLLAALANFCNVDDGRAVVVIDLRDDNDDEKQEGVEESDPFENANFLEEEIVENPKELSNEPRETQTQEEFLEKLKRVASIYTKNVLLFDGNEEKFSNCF

[2] = target: T2, RAD-51 (Caenorhabditis elegans, UniProt G5EGG8); test: fluorescence titration, fixed TNP-ATP concentration; assay type: binding; conditions: 25°C; fluorescent ATP analog; labelled compound
T2 sequence (G5EGG8 1-357): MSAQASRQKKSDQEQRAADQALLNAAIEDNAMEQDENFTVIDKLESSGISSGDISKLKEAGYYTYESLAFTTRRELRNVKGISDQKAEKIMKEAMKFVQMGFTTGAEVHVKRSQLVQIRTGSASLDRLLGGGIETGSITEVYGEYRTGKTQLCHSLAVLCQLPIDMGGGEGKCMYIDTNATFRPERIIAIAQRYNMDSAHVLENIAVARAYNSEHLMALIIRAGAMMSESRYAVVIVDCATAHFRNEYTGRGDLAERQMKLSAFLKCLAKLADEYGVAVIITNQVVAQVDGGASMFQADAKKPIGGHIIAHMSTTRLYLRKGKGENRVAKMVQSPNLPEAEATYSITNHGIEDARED

| Compound | Δ Cy3 fluorescence [1] | Kd [2] |
| --- | --- | --- |
| Nc1ncnc2c1ncn2[C@@H]1O[C@H](COP(=O)(O)OP(=O)(O)O)[C@@H](O)[C@H]1O [ADP] | RFS-1/RIP-1 was pre-incubated with ADP (Figures 5C and 5D) | – |
| TNP-ATP | – | ~3.5 µM |
